From BindingDB's records for doi:10.1016/j.chembiol.2005.08.008 (Gpc Biotech, 2005)

Legend:
[1] = target: T1, Cyclin-dependent kinase/G2/mitotic-specific cyclin- 1 (Homo sapiens, UniProt P06493); assay: Cell Proliferation Assay
From the text: Inhibition of HCT116 cell proliferation with compounds using calcein AM Assay.

[2] = target: T1, Cyclin-dependent kinase/G2/mitotic-specific cyclin- 1; assay: Inhibition Assay
From the text: (§1) In vitro kinase activity of PEGylated pyrazolopyrimidone CDK inhibitor or a 5 PEG-amine was coupled to ReactiGel agarose beads (Pierce, No. 20259).

[3] = target: T2, Cyclin-dependent kinase 2/G1/S-specific cyclin-E1 (Homo sapiens, UniProt P24941); assay: Inhibition Assay
From the text: as §1

[4] = target: T3, Cyclin-dependent kinase 4/G1/S-specific cyclin-D1 (Homo sapiens, UniProt P11802); assay: Inhibition Assay
T3 sequence (P11802 whole entry): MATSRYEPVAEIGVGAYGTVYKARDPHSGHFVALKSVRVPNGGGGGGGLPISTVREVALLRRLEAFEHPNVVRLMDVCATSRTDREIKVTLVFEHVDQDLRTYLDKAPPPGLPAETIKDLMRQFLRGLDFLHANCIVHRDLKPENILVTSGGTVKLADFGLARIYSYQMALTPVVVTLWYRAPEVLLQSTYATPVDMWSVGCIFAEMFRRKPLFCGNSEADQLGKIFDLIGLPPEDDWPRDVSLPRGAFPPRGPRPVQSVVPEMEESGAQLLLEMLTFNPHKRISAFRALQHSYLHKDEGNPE
T3 sequence (P24385 whole entry, further chain): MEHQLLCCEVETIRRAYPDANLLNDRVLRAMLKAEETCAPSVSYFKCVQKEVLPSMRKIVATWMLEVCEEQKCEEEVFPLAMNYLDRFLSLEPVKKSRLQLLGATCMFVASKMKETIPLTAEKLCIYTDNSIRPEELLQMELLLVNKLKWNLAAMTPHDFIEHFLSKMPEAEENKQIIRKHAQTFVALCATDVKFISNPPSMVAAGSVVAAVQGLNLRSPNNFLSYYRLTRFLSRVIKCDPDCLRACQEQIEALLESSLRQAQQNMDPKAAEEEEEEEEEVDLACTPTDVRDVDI
From the text: as §1

[5] = target: T1, Cyclin-dependent kinase/G2/mitotic-specific cyclin- 1; assay: Cell Proliferation Assay; remark: listed apart in the source
Protocol: Inhibition of HCT116 cell proliferation after 72hr of incubation with compounds was determined by SRB Assay.

[6] = target: T1, Cyclin-dependent kinase/G2/mitotic-specific cyclin- 1; assay: In Vitro Kinase Assay
From the text: (§2) Inhibition of in vitro kinase activity of purified CDKs.

[7] = target: T2, Cyclin-dependent kinase 2/G1/S-specific cyclin-E1; assay: In Vitro Kinase Assay
From the text: as §2

[8] = target: T3, Cyclin-dependent kinase 4/G1/S-specific cyclin-D1; assay: In Vitro Kinase Assay
From the text: as §2

[9] = target: Glycogen synthase kinase-3 beta (Homo sapiens, UniProt P49841); assay: In Vitro Kinase Assay
Chain of Glycogen synthase kinase-3 beta (P49841 whole entry): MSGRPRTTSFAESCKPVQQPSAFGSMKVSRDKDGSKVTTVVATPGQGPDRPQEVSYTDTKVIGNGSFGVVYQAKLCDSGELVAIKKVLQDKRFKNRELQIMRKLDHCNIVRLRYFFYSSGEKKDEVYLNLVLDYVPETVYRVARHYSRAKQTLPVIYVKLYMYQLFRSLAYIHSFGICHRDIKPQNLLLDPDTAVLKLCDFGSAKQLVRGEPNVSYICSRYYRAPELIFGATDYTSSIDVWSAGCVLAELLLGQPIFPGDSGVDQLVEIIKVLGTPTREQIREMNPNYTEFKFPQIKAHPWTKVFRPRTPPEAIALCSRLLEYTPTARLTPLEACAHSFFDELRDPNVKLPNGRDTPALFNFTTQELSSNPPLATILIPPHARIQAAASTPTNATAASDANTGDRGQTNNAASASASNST

[10] = target: Cyclin-dependent kinase 5 (Homo sapiens, UniProt Q00535); assay: In Vitro Kinase Assay
Chain of Cyclin-dependent kinase 5 (Q00535 whole entry): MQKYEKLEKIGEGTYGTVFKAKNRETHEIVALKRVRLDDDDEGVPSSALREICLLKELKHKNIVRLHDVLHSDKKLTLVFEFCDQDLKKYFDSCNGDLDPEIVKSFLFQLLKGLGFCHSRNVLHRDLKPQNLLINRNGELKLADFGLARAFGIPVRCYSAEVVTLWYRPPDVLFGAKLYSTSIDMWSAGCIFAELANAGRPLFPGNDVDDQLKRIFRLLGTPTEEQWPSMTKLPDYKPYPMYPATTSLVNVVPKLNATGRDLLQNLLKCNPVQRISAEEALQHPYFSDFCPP
From the text: as §2

CDK3/Cyclin E = CDK3/Cyclin E (Homo sapiens, UniProt Q00526); assay: In Vitro Kinase Assay
Chain of CDK3/Cyclin E (P24864 whole entry): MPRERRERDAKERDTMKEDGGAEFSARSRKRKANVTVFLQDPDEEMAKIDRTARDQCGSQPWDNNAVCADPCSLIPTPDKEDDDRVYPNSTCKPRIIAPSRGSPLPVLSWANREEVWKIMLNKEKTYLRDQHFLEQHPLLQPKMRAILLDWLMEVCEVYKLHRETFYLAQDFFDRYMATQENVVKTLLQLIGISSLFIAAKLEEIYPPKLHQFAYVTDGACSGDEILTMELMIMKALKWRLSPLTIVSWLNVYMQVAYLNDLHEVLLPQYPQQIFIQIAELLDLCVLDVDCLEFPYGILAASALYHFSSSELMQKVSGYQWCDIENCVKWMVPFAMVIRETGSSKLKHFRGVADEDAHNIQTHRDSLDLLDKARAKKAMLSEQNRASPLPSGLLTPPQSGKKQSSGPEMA
Chain of CDK3/Cyclin E (Q00526 whole entry): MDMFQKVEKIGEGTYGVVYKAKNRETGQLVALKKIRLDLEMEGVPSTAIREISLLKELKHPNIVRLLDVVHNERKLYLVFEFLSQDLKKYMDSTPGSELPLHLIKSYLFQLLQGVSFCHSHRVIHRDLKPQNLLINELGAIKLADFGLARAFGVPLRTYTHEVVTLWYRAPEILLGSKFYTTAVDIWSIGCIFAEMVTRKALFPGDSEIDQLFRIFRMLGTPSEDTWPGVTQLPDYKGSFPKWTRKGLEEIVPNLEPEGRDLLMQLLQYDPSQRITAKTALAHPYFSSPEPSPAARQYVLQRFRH
From the text: as §2

[11] = target: T4, CDK-activating kinase assembly factor MAT1 (Homo sapiens, UniProt P51948); assay: In Vitro Kinase Assay
T4 sequence (P51948 whole entry): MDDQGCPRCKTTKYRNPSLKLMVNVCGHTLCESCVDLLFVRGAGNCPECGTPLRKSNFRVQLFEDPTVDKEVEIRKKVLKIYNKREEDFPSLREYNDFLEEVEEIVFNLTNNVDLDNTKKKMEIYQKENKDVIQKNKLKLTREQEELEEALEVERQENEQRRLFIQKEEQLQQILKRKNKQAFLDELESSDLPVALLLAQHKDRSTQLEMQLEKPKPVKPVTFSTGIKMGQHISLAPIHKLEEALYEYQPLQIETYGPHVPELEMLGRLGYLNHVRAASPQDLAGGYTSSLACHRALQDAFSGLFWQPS
From the text: as §2

[12] = target: Cyclin-dependent kinase 6/G1/S-specific cyclin-D3 (Homo sapiens, UniProt Q00534); assay: In Vitro Kinase Assay
Chain of Cyclin-dependent kinase 6/G1/S-specific cyclin-D3 (Q00534 whole entry): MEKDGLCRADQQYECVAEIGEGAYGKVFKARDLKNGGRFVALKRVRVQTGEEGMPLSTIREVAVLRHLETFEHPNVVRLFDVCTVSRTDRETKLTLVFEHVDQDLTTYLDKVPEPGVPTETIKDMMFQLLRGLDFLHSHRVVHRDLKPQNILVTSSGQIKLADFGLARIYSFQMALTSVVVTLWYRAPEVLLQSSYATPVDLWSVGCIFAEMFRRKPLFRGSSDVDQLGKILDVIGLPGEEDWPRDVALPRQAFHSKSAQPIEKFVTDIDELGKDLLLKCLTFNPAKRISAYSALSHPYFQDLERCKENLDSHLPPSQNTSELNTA
Chain of Cyclin-dependent kinase 6/G1/S-specific cyclin-D3 (P30281 whole entry, further chain): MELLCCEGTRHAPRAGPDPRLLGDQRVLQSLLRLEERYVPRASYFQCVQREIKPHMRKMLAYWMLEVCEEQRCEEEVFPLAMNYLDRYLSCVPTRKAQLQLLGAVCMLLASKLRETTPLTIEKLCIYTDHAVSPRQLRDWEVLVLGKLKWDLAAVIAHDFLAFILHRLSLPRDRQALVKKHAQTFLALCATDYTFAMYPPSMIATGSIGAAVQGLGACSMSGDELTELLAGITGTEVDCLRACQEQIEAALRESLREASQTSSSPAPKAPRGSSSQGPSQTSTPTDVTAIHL
From the text: as §2

T1 sequence (P06493 whole entry): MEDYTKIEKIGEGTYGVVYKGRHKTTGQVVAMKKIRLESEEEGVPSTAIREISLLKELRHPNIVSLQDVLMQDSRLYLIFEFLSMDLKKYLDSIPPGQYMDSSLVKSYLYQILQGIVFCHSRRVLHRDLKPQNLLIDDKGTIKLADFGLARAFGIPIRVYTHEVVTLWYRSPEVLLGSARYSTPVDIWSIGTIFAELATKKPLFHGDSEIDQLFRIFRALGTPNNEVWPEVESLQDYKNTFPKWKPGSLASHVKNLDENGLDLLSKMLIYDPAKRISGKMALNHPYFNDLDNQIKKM
T1 sequence (P14635 whole entry, further chain): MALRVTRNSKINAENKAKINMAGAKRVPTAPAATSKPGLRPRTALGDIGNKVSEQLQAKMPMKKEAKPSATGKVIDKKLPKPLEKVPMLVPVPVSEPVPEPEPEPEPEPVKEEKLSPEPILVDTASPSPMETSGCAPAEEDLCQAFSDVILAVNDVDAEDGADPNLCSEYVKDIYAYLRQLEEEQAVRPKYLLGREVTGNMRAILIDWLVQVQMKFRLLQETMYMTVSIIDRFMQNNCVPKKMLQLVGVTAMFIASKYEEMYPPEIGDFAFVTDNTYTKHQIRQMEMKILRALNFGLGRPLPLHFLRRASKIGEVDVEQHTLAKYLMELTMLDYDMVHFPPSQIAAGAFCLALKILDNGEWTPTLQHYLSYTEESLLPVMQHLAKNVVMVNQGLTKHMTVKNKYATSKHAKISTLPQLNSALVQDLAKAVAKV

SMILES | IC50 [5] | IC50 [6] | IC50 [7] | IC50 [8] | other results
COCCOCCOCCOc1ccc(Cc2nc3c(c(C(C)C)nn3-c3c(Cl)cccc3Cl)c(=O)[nH]2)cc1 [PEGylated derivative, RGB-286276] |  |  |  |  | IC50 [1]: 0.034 µM; IC50 [2]: 0.084 µM; IC50 [3]: 0.022 µM; IC50 [4]: 0.89 µM
COc1ccc(Cc2nc3c(c(C(C)C)nn3-c3c(Cl)cc(Cl)cc3Cl)c(=O)[nH]2)cc1 [Pyrazolopyrimidone analog, RGB-285940] | 0.41 µM | 0.23 µM | 0.007 µM | 0.858 µM | 
CC(C)c1nn(-c2c(Cl)cccc2Cl)c2nc(Cc3ccc(OCCN4CCOCC4)cc3)[nH]c(=O)c12 [Pyrazolopyrimidone analog, RGB-285960] | 0.064 µM | 0.31 µM | 0.009 µM | 1.75 µM | 
CC(C)c1nn(-c2c(Cl)cccc2Cl)c2nc(Cc3ccc(OCCO)cc3)[nH]c(=O)c12 [Pyrazolopyrimidone analog, RGB-286147] | 0.051 µM | 0.048 µM | 0.015 µM | 0.839 µM | IC50 [9]: 0.754 µM; IC50 [10]: 0.01 µM; IC50 (CDK3/Cyclin E): 0.009 µM; IC50 [11]: 0.071 µM; IC50 [12]: 0.282 µM
COc1ccc(Cc2nc3c(c(C(C)C)nn3-c3c(Cl)cccc3Cl)c(=O)[nH]2)cc1 [Pyrazolopyrimidone analog, RGB-286331] | 0.22 µM | 0.043 µM | 0.004 µM |  | 
COc1ccc(Cc2nc3c(cnn3-c3c(Cl)cc(Cl)cc3Cl)c(=O)[nH]2)cc1 [Pyrazolopyrimidone analog, RGB-310590] | 5.5 µM |  |  |  | 
COc1ccc(Cc2nc3c(c(Cc4ccccc4)nn3-c3c(Cl)cc(Cl)cc3Cl)c(=O)[nH]2)cc1 [Pyrazolopyrimidone analog, RGB-310591] | > 10 µM |  |  |  | 
COc1ccc(Cc2nc3n[nH]c(C(C)C)c3c(=O)[nH]2)cc1 [Pyrazolopyrimidone analog, RGB-310595] | > 10 µM |  |  |  | 
COc1ccc(Cc2nc3c(c(C(C)C)nn3-c3ccccc3)c(=O)[nH]2)cc1 [Pyrazolopyrimidone analog, RGB-310596] | > 10 µM |  |  |  | 
